Measurements published in US20090169472A1, “METHODS AND COMPOSITIONS FOR TREATING IMMUNE DISORDERS” (CANCER RESEARCH TECHNOLOGY LTD., priority 2005, published 2009).
Oligonucleotides are written 5' to 3', each unit as a sugar letter and its base; * is a phosphorothioate linkage, no mark a phosphodiester; rarer units and linkages stand in square brackets, end groups in braces. Plain capitals give the bases only. r = 2'-OH (RNA)

Experiments:
Flt3L-DC = Flt3L-DC activation assay (cytokines in supernatant by sandwich ELISA); assay type: cell-based, mouse; conditions: for IFNα induction by Flt3L-DC compared with polyUs-21 (reference TLR7 ligand): comparison in words; for ability to stimulate TLR7: summary statement on oligonucleotides of Table 1; for levels of IFNα compared with polyUs-21: at higher concentrations; for IFNα production: phosphodiester RNA of undefined length, previous experiments; for fold less potent in inducing IFNα by Flt3L-DC than the 21-mer (polyUo-21): phosphodiester polyU RNA, shift in the dose response
Method: Flt3L-DC were generated from bone marrow cell suspensions in RPMI 1640 medium containing 10% fetal calf serum, 2 mM glutamine, 100 units/ml penicillin, 100 μg/ml streptomycin, 50 μM 2-mercaptoethanol and 50 ng/ml murine Flt3L (R&D systems) and were used at day 10 or 11 of cultures.
For stimulation with oligonucleotides, 2×10^5 Flt3L-DC were seeded in triplicate in 96-well-plates. Oligonucleotides were added and cells were cultured overnight in a final volume of 200 μl. Controls contained medium alone, 0.5 μg/ml CpG 1668, 100 mM loxoribine or 1 μM R848.
For stimulation with oligonucleotides other than CpG 1668, different doses of each test oligonucleotides were diluted in 150 mM NaCl solution and mixed with an equal volume of 150 mM NaCl solution+/−polytheylenimine (PEI; 3 μl/ml PEI were used irrespective of the RNA dose). After 15 min incubation at room temperature, oligonucleotide/PEI complexes were added to cells. Supernatants were collected after 18-20 hr of culture and levels of IFNα, IL-6 and IL-12 p40 were determined by sandwich ELISA.

[1] = test system: human plasmacytoid DC (pDC); test: Human pDC activation assay (IFNα and IL-6 in supernatant by sandwich ELISA); assay type: cell-based; conditions: PEI complexes, different doses of polyUs 21-mer, polyAs 21-mer 1 μM, overnight culture
Method: Human pDC activation assays. R848 and RNA9.2DR complexed to LyoVec were from Invivogen. RNA oligonucleotides were purchased from Sigma Proligo. Human PMBCs were purified from normal human peripheral blood by Ficoll-Hypaque centrifugation. BDCA4^+ plasmacytoid DC were purified from total PBMC by positive selection using CD304^+ Microbeads and MiniMacs from MiltenyiBiotec. Oligonucleotides/PEI complexes, prepared as described above, were added to 1-2×10^5 pDC seeded in duplicate in 96-well-plates. Cells were cultured overnight in a final volume of 200 μl, supernatants were collected after 18-20 hr of culture and levels of IFNα and IL-6 were determined by sandwich ELISA.

[2] = oligonucleotide/PEI complexes, C57BL/6 Flt3L-DC, overnight culture, result in words

Compound | ability to stimulate TLR7 (Flt3L-DC) | IFNα induction by Flt3L-DC (Flt3L-DC; [2]) | further results
C=CCn1c(=O)n([C@@H]2O[C@H](CO)[C@@H](O)[C@H]2O)c2nc(N)[nH]c(=O)c21 [loxoribine, reference compound] | – | – | IL-6 induction by Flt3L-DC (Flt3L-DC; ligands at concentrations of maximum cytokine induction, compared with polyUs-21/PEI): better inducers of IL-6 than polyUs-21
SSD8: phosphorothioate RNA 21-mer CCUUUCCUUUCUUUCCUUUCC, 4x triple U, SEQ ID NO 12 (rC*rC*rU*rU*rU*rC*rC*rU*rU*rU*rC*rU*rU*rU*rC*rC*rU*rU*rU*rC*rC) | capable of stimulating TLR7 | – | IFNα induction compared among SSD8, SSD9 and SSD10 (four, three or two uridine triplets) (Flt3L-DC; PEI complexes): Differences between oligonucleotides SSD8 and SSD9 were only marginal; potency in inducing IFNα, no uridine at the ends (SSD8, SSD14) compared with uridine at the ends (SSD13, SSD15) (Flt3L-DC; PEI complexes): slightly more potent in inducing IFNα; shift of the dose response, no uridine at the ends (SSD8, SSD14) compared with uridine at the ends (SSD13, SSD15) (Flt3L-DC; PEI complexes): nearly half a logarithmic scale; IFNα induction by Flt3L-DC compared with polyUs-21 (reference TLR7 ligand) (Flt3L-DC; PEI complexes): lower levels of IFNα than the 21-mer oligonucleotide consisting entirely of uridine nucleotides
SSD9: phosphorothioate RNA 21-mer CCCCCCCUUUCUUUCCUUUCC, 3x triple U, SEQ ID NO 13 (rC*rC*rC*rC*rC*rC*rC*rU*rU*rU*rC*rU*rU*rU*rC*rC*rU*rU*rU*rC*rC) | capable of stimulating TLR7 | – | IFNα induction compared among SSD8, SSD9 and SSD10 (four, three or two uridine triplets) (Flt3L-DC; PEI complexes): Differences between oligonucleotides SSD8 and SSD9 were only marginal; IFNα induction by Flt3L-DC compared with polyUs-21 (reference TLR7 ligand) (Flt3L-DC; PEI complexes): lower levels of IFNα than the 21-mer oligonucleotide consisting entirely of uridine nucleotides
SSD10: phosphorothioate RNA 21-mer CCCCCCCUUUCUUUCCCCCCC, 2x triple U, SEQ ID NO 14 (rC*rC*rC*rC*rC*rC*rC*rU*rU*rU*rC*rU*rU*rU*rC*rC*rC*rC*rC*rC*rC) | capable of stimulating TLR7 | – | IFNα induction compared among SSD8, SSD9 and SSD10 (four, three or two uridine triplets) (Flt3L-DC; PEI complexes): slightly reduced; IFNα induction by Flt3L-DC compared with polyUs-21 (reference TLR7 ligand) (Flt3L-DC; PEI complexes): lower levels of IFNα than the 21-mer oligonucleotide consisting entirely of uridine nucleotides
SSD13: phosphorothioate RNA 21-mer UUUCCCUUUCCCUUUCCCUUU, 4x triple U, SEQ ID NO 15 (rU*rU*rU*rC*rC*rC*rU*rU*rU*rC*rC*rC*rU*rU*rU*rC*rC*rC*rU*rU*rU) | capable of stimulating TLR7 | – | –
SSD14: phosphorothioate RNA 21-mer CCUUCCUUCCUUCCUUCCUUC, 5x double U, no U at the end, SEQ ID NO 16 (rC*rC*rU*rU*rC*rC*rU*rU*rC*rC*rU*rU*rC*rC*rU*rU*rC*rC*rU*rU*rC) | capable of stimulating TLR7 | – | potency in inducing IFNα, no uridine at the ends (SSD8, SSD14) compared with uridine at the ends (SSD13, SSD15) (Flt3L-DC; PEI complexes): slightly more potent in inducing IFNα; shift of the dose response, no uridine at the ends (SSD8, SSD14) compared with uridine at the ends (SSD13, SSD15) (Flt3L-DC; PEI complexes): nearly half a logarithmic scale
SSD15: phosphorothioate RNA 21-mer UUCCCUUCCCUUCCUUCCCUU, 5x double U with U at the end, SEQ ID NO 17 (rU*rU*rC*rC*rC*rU*rU*rC*rC*rC*rU*rU*rC*rC*rU*rU*rC*rC*rC*rU*rU) | capable of stimulating TLR7 | – | –
SSD21: phosphorothioate RNA 21-mer CCCCCUUUCUUUCUUUCCCCC, 3x triple U, one C apart, SEQ ID NO 18 (rC*rC*rC*rC*rC*rU*rU*rU*rC*rU*rU*rU*rC*rU*rU*rU*rC*rC*rC*rC*rC) | capable of stimulating TLR7 | – | IFNα levels compared within the group SSD21-SSD25 (three uridine triplets, one to five cytosines apart) (Flt3L-DC; PEI complexes): induced the highest levels of IFNα in this group of oligonucleotides; IFNα induction by Flt3L-DC compared with polyUs-21 (reference TLR7 ligand) (Flt3L-DC; PEI complexes): less efficient in IFNα induction than polyUs-21
SSD22: phosphorothioate RNA 21-mer CCCCUUUCCUUUCCUUUCCCC, 3x triple U, two C apart, SEQ ID NO 19 (rC*rC*rC*rC*rU*rU*rU*rC*rC*rU*rU*rU*rC*rC*rU*rU*rU*rC*rC*rC*rC) | capable of stimulating TLR7 | – | –
SSD23: phosphorothioate RNA 21-mer CCCUUUCCCUUUCCCUUUCCC, 3x triple U, three C apart, SEQ ID NO 20 (rC*rC*rC*rU*rU*rU*rC*rC*rC*rU*rU*rU*rC*rC*rC*rU*rU*rU*rC*rC*rC) | capable of stimulating TLR7 | – | –
SSD24: phosphorothioate RNA 21-mer CCUUUCCCCUUUCCCCUUUCC, 3x triple U, four C apart, SEQ ID NO 21 (rC*rC*rU*rU*rU*rC*rC*rC*rC*rU*rU*rU*rC*rC*rC*rC*rU*rU*rU*rC*rC) | capable of stimulating TLR7 | – | –
SSD25: phosphorothioate RNA 21-mer CUUUCCCCCUUUCCCCCUUUC, 3x triple U, five C apart, SEQ ID NO 22 (rC*rU*rU*rU*rC*rC*rC*rC*rC*rU*rU*rU*rC*rC*rC*rC*rC*rU*rU*rU*rC) | – | hardly any measurable levels of IFNα were induced | –
SSD27: phosphorothioate RNA 21-mer CUCUCUCUCUCUCUCUCUCUC, 10x single U, one C apart, SEQ ID NO 23 (rC*rU*rC*rU*rC*rU*rC*rU*rC*rU*rC*rU*rC*rU*rC*rU*rC*rU*rC*rU*rC) | – | comparably poor in inducing IFNα | –
SSD28: phosphorothioate RNA 21-mer CCCCUUCUUCUUCUUCUUCCC, 5x double U, one C apart, SEQ ID NO 24 (rC*rC*rC*rC*rU*rU*rC*rU*rU*rC*rU*rU*rC*rU*rU*rC*rU*rU*rC*rC*rC) | capable of stimulating TLR7 | very potent in inducing IFNα | levels of IFNα compared with polyUs-21 (Flt3L-DC; PEI complexes): comparable to the polyUs-21 oligonucleotide
SSD29: phosphorothioate RNA 21-mer CCCCCCUUUUUUUUUUCCCCC, 10x U in a string, SEQ ID NO 25 (rC*rC*rC*rC*rC*rC*rU*rU*rU*rU*rU*rU*rU*rU*rU*rU*rC*rC*rC*rC*rC) | capable of stimulating TLR7 | very potent in inducing IFNα | levels of IFNα compared with polyUs-21 (Flt3L-DC; PEI complexes): comparable to the polyUs-21 oligonucleotide
polyA [reference compound] | – | – | IFNα production (Flt3L-DC): neither polyA nor polyC phosphodiester RNA of undefined length triggered IFNα production
polyAs-21: polyA RNA 21-mer, phosphorothioate bonds, SEQ ID NO 26 (rA*rA*rA*rA*rA*rA*rA*rA*rA*rA*rA*rA*rA*rA*rA*rA*rA*rA*rA*rA*rA) | – | failed to induce IFNα | IFN-α production by human pDC [1]: failed to induce IFNα
polyC [reference compound] | – | – | IFNα production (Flt3L-DC): neither polyA nor polyC phosphodiester RNA of undefined length triggered IFNα production
polyTs-21: polyT RNA 21-mer, phosphorothioate bonds, SEQ ID NO 28 (TTTTTTTTTTTTTTTTTTTTT; RNA, all phosphorothioate, T or U not given here; further chemistry not fully specified) | – | unable to induce measurable levels of IFNα at any of the tested concentrations | –
polyUo-10: polyU RNA 10-mer, phosphodiester bonds, SEQ ID NO 4 (UUUUUUUUUU; unmodified RNA) | capable of stimulating TLR7 | – | fold less potent in inducing IFNα by Flt3L-DC than the 21-mer (polyUo-21) (Flt3L-DC; PEI complexes): approximately 20 ×
polyUo-15: polyU RNA 15-mer, phosphodiester bonds, SEQ ID NO 3 (UUUUUUUUUUUUUUU; unmodified RNA) | capable of stimulating TLR7 | – | fold less potent in inducing IFNα by Flt3L-DC than the 21-mer (polyUo-21) (Flt3L-DC; PEI complexes): approximately 20 ×
polyUo-21: polyU RNA 21-mer, phosphodiester bonds, SEQ ID NO 2 (UUUUUUUUUUUUUUUUUUUUU; unmodified RNA) | capable of stimulating TLR7 | induced IFNα by Flt3L-DC in a dose dependent manner | IFNα induction by Flt3L-DC compared with polyUs-21 (reference TLR7 ligand) (Flt3L-DC; PEI complexes): induced similar IFNα; IFNα induction by Flt3L-DC (Flt3L-DC; free oligonucleotide given to culture without PEI): failed to induce IFNα
polyUs-15: polyU RNA 15-mer, phosphorothioate bonds, SEQ ID NO 6 (rU*rU*rU*rU*rU*rU*rU*rU*rU*rU*rU*rU*rU*rU*rU) | capable of stimulating TLR7 | – | IFNα induction by Flt3L-DC compared with polyUs-21 (reference TLR7 ligand) (Flt3L-DC; PEI complexes): indistinguishable from the response obtained with the 21-mer
polydUo-21: polyU DNA 21-mer (dU), phosphodiester bonds, SEQ ID NO 8 (UUUUUUUUUUUUUUUUUUUUU; listed as RNA, chemistry not fully specified) | capable of stimulating TLR7 | produced IFNα | potency in inducing IFNα compared with polyUo-21 (Flt3L-DC; at higher doses, PEI complexes): even more potent; potency in stimulating an IFNα response compared with polyUo-21 (Flt3L-DC; at lower doses, PEI complexes): less potent
polydUs-21: polyU DNA 21-mer (dU), phosphorothioate bonds, SEQ ID NO 9 (UUUUUUUUUUUUUUUUUUUUU; DNA, all phosphorothioate, T or U not given here) | capable of stimulating TLR7 | – | –
